Measured values from patent US11420922B2, “Hydroxylated tropolone inhibitors of nucleotidyl transferases in herpesvirus and Hepatitis B and uses therefor” (Saint Louis University, priority 2015, dated 2022).
Read-outs that look alike come from different tables or passages of the source.

How the values were obtained:
[1] = Cytotoxicity reported with the HBV assay (Table 4); assay type: cell-based; conditions: human
Description: Qualitative assessments of cytotoxicity were done visually by inspecting the cells in the primary screening assays. For the quantitative assays, cells were plated in 96-well plates at 1.0×10^4 per well. The next day the compounds were added at 0.78 to 100 μM in a final concentration of 1% (v/v) DMSO, and the cells were incubated for 24 hours under conditions identical to those employed for the viral replication inhibition assays. Mitochondrial toxicity was measured by incubating the cells with 0.25 mg/mL thiazolyl blue tetrazolium bromide (MTT, Sigma Aldrich Chemical Co.), the cultures were incubated for 60 min, metabolites were solubilized in acidic isopropanol, and absorbance was read at 570 nm. CC50 values were calculated by non-linear curve fitting using GraphPad Prism.

HSV-1 = experiment: Anti-HSV-1 replication assay in Vero cells, titers by plaque assay; assay type: cell-based, herpes simplex virus 1; conditions: Human alphaherpesvirus 1, Vero; for log reduction at 5 µM / log reduction at 50 µM: 24 h; for log reduction at 5 µM: read-out: HSV-1 Log suppression 5 μM; for log reduction at 50 µM: read-out: HSV-1 Log suppression 50 μM; for log reduction at 1.5 µM: read-out: HSV-1 Log suppression 1.5 μM
Description: Vero cells were maintained in Dulbecco's modified Eagle's medium (DMEM) containing 3% newborn calf serum, 3% bovine growth serum, 2 mM L-glutamine and 100 IU/mL penicillin and 0.1 mg/mL streptomycin (P/S). HSV-1 #6 and HSV-2 #1 are de-identified clinical isolates from the Saint Louis University Hospital. Stocks were prepared after a single passage in cell culture and were titered by standard plaque assay (Knipe and Spang, 1982). Wild-type HSV-2 used in FIG. 3 was laboratory strain 333. […] Virus stocks were grown and titered on Vero cells (Morrison and Knipe, 1996).
(§1) Compounds to be screened were diluted in PBS supplemented to contain 2% newborn calf serum and 1% glutamine, and added in 100 μL volume to confluent cell monolayers in 24-well cluster plates. Immediately thereafter HSV-1 and HSV-2, diluted in the supplemented PBS medium, were added to the wells in 50 μl volume such that the final concentration of compound was 50 μM and 5 μM and the multiplicity of infection was 0.1. The plates were incubated at 37° C. for 1 hour and then virus-containing inoculum was removed and the wells were washed once in PBS. Compounds, diluted to 50 μM and 5 μM in DMEM supplemented to contain 2% newborn calf serum and 1% each penicillin/streptomycin, were added at 0.5 mL/well. Plates were incubated at 37° C. an additional 23 hr, and then the plates were visually inspected through a phase contrast microscope for cytopathic effect, and for toxic effect. […] The entire contents of each well were collected by scraping. Samples were frozen at −80° C., and then subsequently thawed, sonicated, and infectious virus titer was determined by standard plaque assay on Vero cell monolayers. Because the compounds were dissolved at 10 mM in 100% DMSO, equivalent dilutions of DMSO were added to additional wells as a control for effects of the diluent. Each experiment was repeated once. EC50 values were determined as above except that serial dilutions of the compound to be tested were prepared starting at 50 μM. The inhibitory values were calculated by non-linear curve-fitting in GraphPad Prism.

HSV-2 = experiment: Anti-HSV-2 replication assay in Vero cells, titers by plaque assay; assay type: cell-based, herpes simplex virus 2; conditions: for log reduction at 5 µM / log reduction at 50 µM: Human alphaherpesvirus 2, Vero, 24 h; for log reduction at 5 µM: read-out: HSV-2 Log suppression 5 μM; for log reduction at 50 µM: read-out: HSV-2 Log suppression 50 μM
HBV = HBV replication assay in HepDES19 cells; assay type: cell-based; conditions: Hepatitis B virus; HepDES19 cells; read-out: EC50 (HBV assay)
Description: HBV replication assay. Inhibition of HBV replication was measured in HepDES19 cells as previously described (Cai, et al., 2014). Cells were seeded into 6-well plates and incubated in DMEM/F12, 10% fetal bovine serum (FBS), 1% penicillin/streptomycin (P/S) with 1 μg/ml tetracycline. Tetracycline was withdrawn after 24 hours. The test compound was applied to duplicate wells 48 hours later in medium containing a final DMSO concentration of 1%, and medium containing the compound was refreshed daily for the following two days. Cells were harvested and non-encapsidated nucleic acids were digested with micrococcal nuclease (New England Biolabs). HBV DNA was purified from capsids using QIAamp Cador Pathogen Mini Kit (Qiagen) with proteinase K incubation overnight at 37° C. TaqMan PCR was performed for 40 cycles at an annealing temperature of 60° C. Primers and probe (IDT Inc.) for the plus-polarity strand were: 5′[…]3′ (SEQ ID NO: 1); 5′[…]3′ (SEQ ID NO: 2); 5′/56-FAM/[…]/ZEN/[…]/3IABkFQ (SEQ ID NO: 3). Primers and probe for the minus-polarity strand were: 5′[…]3′ (SEQ ID NO: 4); 5′[…]3′ (SEQ ID NO: 5); 5′/56-FAM/[…]/ZEN/[…]/3IABkFQ (SEQ ID NO: 6).

HSV = experiment: Anti-HSV SAR summary, HSV type not separated; assay type: cell-based, herpes simplex virus; conditions: grouped by activity at 50, 5 and 0.5 μM
Description: as §1
A series of over 20 synthetic αHTs were synthesized and tested to both confirm the initial SAR, and to provide leads for further optimization pursuits (FIG. 5). […] Specifically, biphenyl-containing molecules #118 and 115 inhibit HSV replication by up to 4 log10 at 200 nM. The increased potency over close analogs #111 and 113 confirmed the importance of added lipophilicity.

[2] = hepatoma cells, read-out: CC50 (HBV assay table)
[3] = 5 μM, moi 0.1, 24 h, vs DMSO, +/− are qualitative, key not given
[4] = 50 μM, moi 0.1, 24 h, vs DMSO, +/−/T are qualitative, key not given

O=c1c(O)ccc(-c2ccncc2)cc1O [Compound 266]
CC50 at 24 h [1, 2]: 32 µM

O=c1c(O)cccc2cc(O)c(O)c(O)c12 [Compound 195, purpurogallin]
log reduction at 5 µM (HSV-1): 0.17
log reduction at 50 µM (HSV-1): 0.2
log reduction at 5 µM (HSV-2): -0.04
log reduction at 50 µM (HSV-2): 0.11

COC(=O)c1c2c(cc(O)c(=O)c1O)COC2=O [Compound 280]
CC50 at 24 h [1]: 32 µM

O=C1OCc2cc(O)c(=O)c(O)c(O)c21 [Compound 271]
log reduction at 5 µM (HSV-1): 0.47
log reduction at 50 µM (HSV-1): 1.87
log reduction at 1.5 µM (HSV-1): 0.21
log reduction at 5 µM (HSV-2): 1.53
log reduction at 50 µM (HSV-2): 2.94

Cc1cc(O)c(=O)c(O)cc1C(=O)c1ccc(-c2ccc3ccccc3c2)cc1 [Compound 258]
CC50 at 24 h [1, 2]: 28 µM
log reduction at 1.5 µM (HSV-1): 5.04
EC50 (HBV): 8.8 µM

COCc1cc(O)c(=O)c(O)c(C(=O)OC)c1C(=O)OC [Compound 108]
CC50 at 24 h [1, 2]: 81 µM
log reduction at 5 µM (HSV-1): 0
log reduction at 5 µM (HSV-2): 0
anti-HSV SAR group, in words (HSV): weakest inhibitors

Cc1cc(O)c(=O)c(O)cc1-c1ccc(-c2cccc3ccccc23)cc1 [Compound 235]
CC50 at 24 h [1, 2]: 30 µM
EC50 (HBV): 5.2 µM

COC(=O)c1c(CCl)cc(O)c(=O)c(O)c1C(=O)OC [Compound 107]
CC50 at 24 h [1, 2]: 71 µM

Cc1cc(O)c(=O)c(O)cc1C(=O)c1cccc(-c2ccc3ccccc3c2)c1 [Compound 259]
CC50 at 24 h [1, 2]: 21 µM
log reduction at 1.5 µM (HSV-1): 5.05
EC50 (HBV): 2.8 µM

COC(=O)c1cc(O)c(=O)c(OC)cc1C [Compound 273]
log reduction at 5 µM (HSV-1): 5.75
log reduction at 50 µM (HSV-1): 6.05
log reduction at 1.5 µM (HSV-1): 2.12
log reduction at 5 µM (HSV-2): 6.32
log reduction at 50 µM (HSV-2): 6.9

Nc1ccn(C[C@@H](CO)OCP(=O)(O)O)c(=O)n1 [CDV, Cidofovir, reference compound]
log reduction at 5 µM (HSV-1; [3]): 0.77
log reduction at 50 µM (HSV-1; [4]): 2.67
log reduction at 5 µM (HSV-2; [3]): 0.38
log reduction at 50 µM (HSV-2; [4]): 1.19

Cc1cc(O)c(=O)c(O)cc1C(=O)c1ccc(-c2ccncc2)cc1 [Compound 260]
log reduction at 1.5 µM (HSV-1): 0.5

Cc1cc(O)c(=O)c(O)cc1-c1cccc(-c2ccc3ccccc3c2)c1 [Compound 232]
CC50 at 24 h [1, 2]: 55 µM
EC50 (HBV): 9.6 µM

O=c1c(O)ccc(-c2ccccc2)cc1O [Compound 262]
CC50 at 24 h [1, 2]: 96 µM

Cc1cc(O)c(=O)c(O)cc1-c1ccc(Cl)cc1 [Compound 144]
log reduction at 5 µM (HSV-1): -0.34
log reduction at 50 µM (HSV-1): 3.83
log reduction at 5 µM (HSV-2): 0.65
log reduction at 50 µM (HSV-2): 5.18
anti-HSV SAR group, in words (HSV): weakest inhibitors

Cc1cc(O)c(=O)c(O)cc1-c1cccc(-c2cccc3ccccc23)c1 [Compound 234]
log reduction at 1.5 µM (HSV-1): 2.71

Cc1cc(O)c(=O)c(O)cc1-c1ccc([N+](=O)[O-])cc1 [Compound 112]
log reduction at 5 µM (HSV-1): 0.02
log reduction at 50 µM (HSV-1): 5.25
EC50 (HBV): 2.5 µM
log reduction at 5 µM (HSV-2): -0.4
log reduction at 50 µM (HSV-2): 3.2
anti-HSV SAR group, in words (HSV): weakest inhibitors

Cc1cc(O)c(=O)c(O)cc1-c1cccc(-c2ccccc2)c1 [Compound 231]
CC50 at 24 h [1, 2]: 16 µM
EC50 (HBV): 10 µM

CCOC(=O)c1c(C)cc(O)c(=O)c(O)c1O [Compound 270]
log reduction at 5 µM (HSV-1): 5.97
log reduction at 50 µM (HSV-1): 6.47
log reduction at 5 µM (HSV-2): 6.32
log reduction at 50 µM (HSV-2): 6.9

COC(=O)c1cc(O)c(=O)c(O)cc1C [Compound 274]
CC50 at 24 h [1, 2]: > 100 µM
log reduction at 1.5 µM (HSV-1): 0.59

Cc1cc(O)c(=O)c(O)cc1C(=O)c1cccc(-c2cccc3ccccc23)c1 [Compound 257]
CC50 at 24 h [1, 2]: 32 µM
log reduction at 1.5 µM (HSV-1): 4.82
EC50 (HBV): 8.3 µM

Cc1cc(O)c(=O)c(O)cc1-c1ccc(-c2ccc3ccccc3c2)cc1 [Compound 233]
log reduction at 1.5 µM (HSV-1): 2.63

Cc1ccc(O)c(=O)c(O)c1 [Compound 210]
log reduction at 5 µM (HSV-1): 4.32
log reduction at 50 µM (HSV-1): 4.56
log reduction at 5 µM (HSV-2): 4.04
log reduction at 50 µM (HSV-2): 5.55

Cc1cc(O)c(=O)c(O)cc1C(=O)c1ccc(-c2cccc3ccccc23)cc1 [Compound 256]
log reduction at 1.5 µM (HSV-1): 5.18

Cc1cc(O)c(=O)c(O)cc1C(=O)c1cccc(-c2ccccc2)c1 [Compound 255]
log reduction at 1.5 µM (HSV-1): 5.02

O=c1c(O)ccc(-c2cnc3ccccc3c2)cc1O [Compound 267]
CC50 at 24 h [1, 2]: 25 µM

O=c1c(O)ccc(-c2ccco2)cc1O [Compound 265]
CC50 at 24 h [1, 2]: 40 µM

COC(=O)c1c(C)cc(OC)c(=O)c(O)c1OC [Compound 269]
CC50 at 24 h [1, 2]: > 100 µM
log reduction at 5 µM (HSV-1): 1.48
log reduction at 50 µM (HSV-1): 3.76
log reduction at 1.5 µM (HSV-1): 0.24
HSV-2 Log suppression 1.5 μM (HSV-2; 1.5 μM): 4.04 log10
log reduction at 50 µM (HSV-2): 4.67

O=c1c(O)ccc(Br)cc1O [Compound 261]
CC50 at 24 h [1, 2]: > 100 µM

CCOC(=O)c1cc(O)c(=O)c(O)cc1C [Compound 109]
log reduction at 5 µM (HSV-1): 0.21
log reduction at 50 µM (HSV-1): 3.99
log reduction at 5 µM (HSV-2): -0.22
log reduction at 50 µM (HSV-2): 4.15
anti-HSV SAR group, in words (HSV): weakest inhibitors

O=c1c(O)ccc(-c2ccc(-c3ccccc3)cc2)cc1O [Compound 264]
CC50 at 24 h [1, 2]: 28 µM
